Data from patent US5648382A, “Cyclohexane compounds” (Adir et Compagnie, priority 1995, dated 1997).

What follows are molecules tested on chicken embryo chorio-allantoic membrane (assay: Inhibition of neovascularization of chicken embryo chorioallantoic membrane). Details: avascular zone greater than 4 mm in diameter, 48 hours after disk placed on CAM on day 6.
Type: in vivo
Experimental: Example B: Inhibition of Neovascularization of Chicken Embryo Chorioallantoic Membrane
This test was carried out with chicken embryos in the manner described above (Crum R., Szabo S. and Folkman J., Science, (1985), 230, 1375-1378). The fertilized eggs are incubated at 37° C. (D0). A pocket of air is created by removing 1 ml of albumin (D3), then a window is cut from the shell (D4) and the vitelline membrane is removed in order to separate the chorio-allantoic membrane (CAM).
The products to be tested are dissolved in ethanol and placed on methylcellulose disks which are dried and placed on the CAM on day 6. From 8 to 16 eggs are used per group. The zone situated round the disk is then examined 48 hours later. The eggs having an avascular zone greater than 4 mm in diameter are counted and the results are expressed as a percentage of eggs having an avascular zone.

With `O=C(CCl)NC(=O)O[C@H]1CC[C@]2(CO2)[C@](O)(C2OC2CCCc2ccccc2)[C@H]1Br` (single isomer, unassigned) [Example 13] as the molecule, how does the “% of eggs having an avascular zone” value read?
The value was 70 ± 16%.

`CC1([C@]23O[C@H]2[C@H](OC(=O)NC(=O)CCl)CC[C@]32CO2)CO1` (single isomer, unassigned) [Example 30 Diastereoisomer B, (1R*,2S*,5R*,6S*)-5-Chloroacetylcarbamoyloxy-1-[(2S* and 2R*)-(2-methyloxiran-2-yl)]-2-(2-spiro-oxiranyl)-7-oxabicyclo[4.1.0]heptan] was tested. Which “% of eggs having an avascular zone” value did it give?
The value was 68 ± 5%.

How did the “% of eggs having an avascular zone” value turn out when `CC(C)CCCC12OC1C(OC(=O)NC(=O)CCl)CCC21CO1` (stereo not drawn) [Example 21, 5-Chloroacetylcarbamoyloxy-2-(2-spiro-oxiranyl)-1-(4-methyl-pentyl)-7-oxabicyclo[4.1.0]heptane] was run?
Its value is 76 ± 6%.

How did the “% of eggs having an avascular zone” value turn out when `CC1([C@]23O[C@H]2[C@@H](OC(=O)NC(=O)CCl)CC[C@]32CO2)CO1` (single isomer, unassigned) [Example 17 Diastereoisomer A, (1R*,2S*,5S*,6S*)-5-Chloroacetylcarbamoyloxy-1-[(2S* and 2R*)-(2-methyloxiran-2-yl)]-2-(2-spiro-oxiranyl)-7-oxabicyclo[4.1.0]heptan] was run?
The value was 74 ± 7%.

For `CC1([C@]23O[C@H]2[C@H](OC(=O)NC(=O)CCl)CC[C@]32CO2)CO1` (single isomer, unassigned) [Example 30 Diastereoisomer A, (1R*,2S*,5R*,6S*)-5-Chloroacetylcarbamoyloxy-1-[(2S* and 2R*)-(2-methyloxiran-2-yl)]-2-(2-spiro-oxiranyl)-7-oxabicyclo[4.1.0]heptan], which “% of eggs having an avascular zone” value is on record?
The value was 75 ± 7%.

Which “% of eggs having an avascular zone” value does the source give for `CC1OC1(C)[C@@]1(O)C[C@H](OC(=O)NC(=O)CCl)CC[C@]12CO2` (relative stereo) [Example 7, (3S*; 4R*, 6R*)-6-Chloroacetylcarbamoyloxy-4-hydroxy-4-(2,3-di-methyl-2-oxiranyl)-1-oxa-spiro[2.5]octane] here?
Its value is 81 ± 10%.

With `C=C(C)[C@]12O[C@H]1[C@H](OC(=O)NC(=O)CCl)CC[C@]21CO1` (relative stereo) [Example 29, (1S*,2S*,5R*,6S*)-5-Chloroacetylcarbamoyloxy-1-isopropenyl-2(2-spiro-oxiranyl)-7-oxabicyclo[4.1.0]heptane] as the molecule, how does the “% of eggs having an avascular zone” value read?
The value was 66 ± 6%.

For `CC1OC1(C)[C@@]1(O)C[C@H](OC(=O)NC(=O)CCl)CC[C@]12CO2` (relative stereo) [Example 6, (3S*, 4R*, 6R*)-6-Chloroacetylcarbamoyloxy-4-hydroxy-4-(2,3-dimethyloxiran-2-yl)-1-oxa-spiro[2.5]octane], which “% of eggs having an avascular zone” value is on record?
The value was 79 ± 9%.

For `O=C(CCl)NC(=O)O[C@@H]1CC[C@]2(CO2)[C@@]2(CCCCCc3ccccc3)O[C@@H]12` (relative stereo) [Example 18, (1S*,2S*,5R*,6S*)-5-Chloroacetylcarbamoyloxy-2-(2-spiro-oxiranyl)-1-(5-phenyl-pentyl)-7-oxabicyclo[4.1.0]heptane], which “% of eggs having an avascular zone” value is on record?
Its value is 69 ± 6%.

`O=C(CCl)NC(=O)O[C@@H]1CC[C@]2(CO2)[C@@](O)(CCCCCc2ccccc2)[C@@H]1Br` (relative stereo) [Example 10, (3S*, 4S*, 5R*, 6R*)-5-Bromo-6-chloroacetylcarbamoyloxy-4-hydroxy-4-(5-phenylpentyl)-1-oxa-spiro[2.5]octane] was tested. Which “% of eggs having an avascular zone” value did it give?
Its value is 73 ± 11%.

Which “% of eggs having an avascular zone” value does the source give for `CC1([C@@]23OC(=O)O[C@@H]2[C@H](OC(=O)NC(=O)CCl)CC[C@]32CO2)CO1` (relative stereo) [Example 23, (3S*,4S*,5R*,6R*)-6-Chloroacetylcarbamoyloxy-4-(2-methyl-oxiran-2-yl)-1-oxa-spiro[2.8]benzo[1.3]dioxol-2-one] here?
The value was 78 ± 7%.

How did the “% of eggs having an avascular zone” value turn out when `C[C@@]1(OC(=O)NC(=O)CCl)CC[C@@H](OC(=O)NC(=O)CCl)[C@@H]2O[C@@]21CCCCCc1ccccc1` (relative stereo) [Example 19, (1S*,2R*,5R,*6S*)-2,5-Dichloroacetylcarbamoyloxy-2-methyl-1-(5-phenylpentyl)-7-oxabicyclo[4.1.0]heptane] was run?
The value was 76 ± 9%.

For `O=C(CCl)NC(=O)O[C@H]1CC[C@]2(CO2)[C@@](CCCCCc2ccccc2)(OC(=O)NC(=O)CCl)C1` (relative stereo) [Example 28, (3S*,4S*6S*)-4,6-Dichloroacetylcarbamoyloxy-4-(5-phenylpentyl)-1-oxa-spiro[2.5]octane], which “% of eggs having an avascular zone” value is on record?
The value was 90 ± 4%.

These molecules were tested on tumour (assay: Antitumour activity in mice, subcutaneous tumour implant). Details: 30 mg/kg, i.p., day 1 to day 12; tumour weight on day 13.
Type: in vivo
Experimental: Example C: Antitumour Activity
The antitumour activity of the compounds of the invention was studied in accordance with the protocol described by R. I. Geran et al, Cancer Chemotherapy Reports, (1972), Part 3, pages 3 et seq.
Mice were divided at random into treated groups (11 mice per group) and a control group of 40 mice.
Tumour fragments were implanted on day 0 (subcutaneous implant). The compounds to be tested were administered for 12 days (day 1 to day 12) by the i.p. route.
The average weight of the tumour was determined on day 13 after implantation. The percentage inhibition was calculated in accordance with the following formula: [formula] As an example, the compound of Example 27 gave the following results: […]

`O=C(CCl)NC(=O)O[C@@H]1CC[C@]2(CO2)[C@](CCCCCc2ccccc2)(OC(=O)NC(=O)CCl)C1` (relative stereo) [Example 27, (3S*,4R*,6R*)-4,6-Dichloroacetylcarbamoyloxy-4-(5-phenylpentyl)-1-oxa-spiro[2.5]octane] was tested. Which “% inhibition (tumour weight)” value did it give?
Its value is 56%.

Same assay, conditions: 60 mg/kg, i.p., day 1 to day 12; tumour weight on day 13

With `O=C(CCl)NC(=O)O[C@@H]1CC[C@]2(CO2)[C@](CCCCCc2ccccc2)(OC(=O)NC(=O)CCl)C1` (relative stereo) [Example 27, (3S*,4R*,6R*)-4,6-Dichloroacetylcarbamoyloxy-4-(5-phenylpentyl)-1-oxa-spiro[2.5]octane] as the molecule, how does the “% inhibition (tumour weight)” value read?
The value was 82%.
